# Experimental data: US20240269139A1, “COMPOUNDS FOR TARGETED PROTEIN DEGRADATION OF KINASES” (DANA-FARBER CANCER INSTITUTE, INC., priority 2020, published 2024)
# Like-named read-outs stand apart in the source and are kept apart here.
# How the values were obtained:
# Format in all cases: cell-based
# [1] = molecular target: protein kinases (human kinome) (Homo sapiens, UniProt P30291); details: for logFC of WEE1: WEE1 P30291-1
# [2] = molecular target: T1, protein kinases (human kinome) (Homo sapiens, UniProt O14976)
# T1 sequence (O14976 1-1311): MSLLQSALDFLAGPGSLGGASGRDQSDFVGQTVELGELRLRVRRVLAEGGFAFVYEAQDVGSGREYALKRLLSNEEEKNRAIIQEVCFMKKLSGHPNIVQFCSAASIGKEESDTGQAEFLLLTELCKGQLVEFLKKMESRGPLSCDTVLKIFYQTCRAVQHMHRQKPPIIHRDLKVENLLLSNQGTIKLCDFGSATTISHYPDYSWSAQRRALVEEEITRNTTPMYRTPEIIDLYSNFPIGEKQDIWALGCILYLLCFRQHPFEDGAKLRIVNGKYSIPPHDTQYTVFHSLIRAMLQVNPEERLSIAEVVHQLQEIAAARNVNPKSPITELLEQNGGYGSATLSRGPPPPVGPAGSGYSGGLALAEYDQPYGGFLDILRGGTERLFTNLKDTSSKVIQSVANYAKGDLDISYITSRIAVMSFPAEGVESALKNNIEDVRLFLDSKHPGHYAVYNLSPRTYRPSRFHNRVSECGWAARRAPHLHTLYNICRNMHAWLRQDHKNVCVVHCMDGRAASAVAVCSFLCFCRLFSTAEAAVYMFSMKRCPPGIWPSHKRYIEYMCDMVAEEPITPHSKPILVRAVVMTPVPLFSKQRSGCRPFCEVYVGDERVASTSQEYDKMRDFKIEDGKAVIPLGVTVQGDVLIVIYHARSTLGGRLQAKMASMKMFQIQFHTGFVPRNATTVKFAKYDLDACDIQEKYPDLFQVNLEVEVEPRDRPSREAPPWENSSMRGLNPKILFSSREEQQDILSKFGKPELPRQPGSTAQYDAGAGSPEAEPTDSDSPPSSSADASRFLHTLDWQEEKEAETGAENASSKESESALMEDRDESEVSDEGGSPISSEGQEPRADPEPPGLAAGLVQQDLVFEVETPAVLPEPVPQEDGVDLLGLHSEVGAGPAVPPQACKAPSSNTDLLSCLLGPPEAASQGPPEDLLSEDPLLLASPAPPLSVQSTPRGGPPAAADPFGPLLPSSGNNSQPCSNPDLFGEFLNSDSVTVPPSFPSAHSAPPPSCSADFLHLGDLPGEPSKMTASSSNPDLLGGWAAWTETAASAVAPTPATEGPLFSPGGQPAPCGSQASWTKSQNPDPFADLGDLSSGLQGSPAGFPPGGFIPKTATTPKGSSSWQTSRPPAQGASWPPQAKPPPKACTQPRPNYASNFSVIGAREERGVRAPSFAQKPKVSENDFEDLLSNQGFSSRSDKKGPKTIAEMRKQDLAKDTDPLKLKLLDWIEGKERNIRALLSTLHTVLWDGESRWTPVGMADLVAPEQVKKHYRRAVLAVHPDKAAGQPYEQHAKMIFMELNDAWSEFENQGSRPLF
# [3] = molecular target: protein kinases (human kinome) (Homo sapiens, UniProt P11802)
# [4] = molecular target: protein kinases (human kinome) (Homo sapiens, UniProt P16591); details: for logFC of FER (P16591-1): down
# [5] = molecular target: protein kinases (human kinome) (Homo sapiens, UniProt P51451); details: for logFC BLK: BLK (P51451), direction down; for logFC of BLK (P51451): down
# [6] = molecular target: protein kinases (human kinome) (Homo sapiens, UniProt Q2M2I8)
# Sequence of protein kinases (human kinome) (Homo sapiens, UniProt Q2M2I8) (Q2M2I8 whole entry): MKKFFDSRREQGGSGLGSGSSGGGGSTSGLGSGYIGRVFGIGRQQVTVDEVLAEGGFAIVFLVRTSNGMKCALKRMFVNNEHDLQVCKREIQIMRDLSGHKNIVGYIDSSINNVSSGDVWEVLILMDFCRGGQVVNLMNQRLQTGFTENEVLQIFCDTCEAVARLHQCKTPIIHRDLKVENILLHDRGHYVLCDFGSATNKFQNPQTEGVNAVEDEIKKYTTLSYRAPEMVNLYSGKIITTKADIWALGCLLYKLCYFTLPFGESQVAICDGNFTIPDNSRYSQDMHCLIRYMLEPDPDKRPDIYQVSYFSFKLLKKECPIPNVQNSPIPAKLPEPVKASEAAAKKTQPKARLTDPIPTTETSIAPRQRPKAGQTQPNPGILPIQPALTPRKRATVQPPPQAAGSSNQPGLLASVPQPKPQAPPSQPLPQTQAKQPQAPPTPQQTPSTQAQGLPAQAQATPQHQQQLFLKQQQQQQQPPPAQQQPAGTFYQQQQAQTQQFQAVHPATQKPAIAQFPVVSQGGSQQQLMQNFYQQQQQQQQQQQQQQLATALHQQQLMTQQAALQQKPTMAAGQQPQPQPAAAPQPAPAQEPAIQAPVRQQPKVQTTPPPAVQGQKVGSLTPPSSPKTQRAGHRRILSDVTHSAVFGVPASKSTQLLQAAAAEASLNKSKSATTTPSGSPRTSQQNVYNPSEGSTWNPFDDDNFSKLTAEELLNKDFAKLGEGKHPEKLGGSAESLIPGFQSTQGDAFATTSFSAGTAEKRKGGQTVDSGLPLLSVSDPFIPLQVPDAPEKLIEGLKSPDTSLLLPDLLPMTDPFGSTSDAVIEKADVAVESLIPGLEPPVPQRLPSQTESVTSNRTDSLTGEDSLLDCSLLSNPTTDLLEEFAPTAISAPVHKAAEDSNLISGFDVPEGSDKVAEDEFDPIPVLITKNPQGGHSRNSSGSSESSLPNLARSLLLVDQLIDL
# Sequence of protein kinases (human kinome) (Homo sapiens, UniProt P51451) (P51451 whole entry): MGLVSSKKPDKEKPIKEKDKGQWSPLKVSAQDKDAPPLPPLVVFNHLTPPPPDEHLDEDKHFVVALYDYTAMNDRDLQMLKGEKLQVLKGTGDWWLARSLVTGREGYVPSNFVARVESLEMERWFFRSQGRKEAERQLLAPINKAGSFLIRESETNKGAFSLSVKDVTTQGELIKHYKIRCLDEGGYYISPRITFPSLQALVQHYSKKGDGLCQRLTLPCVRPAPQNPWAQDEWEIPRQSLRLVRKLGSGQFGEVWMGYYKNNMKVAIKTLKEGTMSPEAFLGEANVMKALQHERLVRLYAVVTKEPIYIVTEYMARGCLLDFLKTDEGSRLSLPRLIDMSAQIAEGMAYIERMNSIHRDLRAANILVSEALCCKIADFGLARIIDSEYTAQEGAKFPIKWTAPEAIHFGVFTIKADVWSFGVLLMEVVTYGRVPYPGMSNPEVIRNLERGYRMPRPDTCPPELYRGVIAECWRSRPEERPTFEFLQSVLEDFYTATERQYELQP
# Sequence of protein kinases (human kinome) (Homo sapiens, UniProt P30291) (P30291 whole entry): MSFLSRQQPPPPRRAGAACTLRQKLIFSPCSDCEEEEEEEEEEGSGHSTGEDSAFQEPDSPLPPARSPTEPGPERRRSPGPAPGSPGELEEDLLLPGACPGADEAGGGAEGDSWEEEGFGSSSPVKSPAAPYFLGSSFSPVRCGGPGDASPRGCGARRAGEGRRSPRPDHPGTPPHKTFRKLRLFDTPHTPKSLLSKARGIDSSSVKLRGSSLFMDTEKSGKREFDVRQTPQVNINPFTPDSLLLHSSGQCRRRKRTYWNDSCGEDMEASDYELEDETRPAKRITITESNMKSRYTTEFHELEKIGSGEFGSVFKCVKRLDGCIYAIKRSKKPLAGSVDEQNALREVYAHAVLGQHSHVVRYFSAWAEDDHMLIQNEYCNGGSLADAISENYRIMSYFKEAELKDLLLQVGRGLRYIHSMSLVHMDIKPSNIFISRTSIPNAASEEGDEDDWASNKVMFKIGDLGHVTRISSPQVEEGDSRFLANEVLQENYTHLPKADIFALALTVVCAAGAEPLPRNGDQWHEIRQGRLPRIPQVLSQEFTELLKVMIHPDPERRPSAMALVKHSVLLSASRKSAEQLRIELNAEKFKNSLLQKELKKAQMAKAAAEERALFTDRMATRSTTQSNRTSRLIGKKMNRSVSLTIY
# Sequence of protein kinases (human kinome) (Homo sapiens, UniProt P11802) (P11802 whole entry): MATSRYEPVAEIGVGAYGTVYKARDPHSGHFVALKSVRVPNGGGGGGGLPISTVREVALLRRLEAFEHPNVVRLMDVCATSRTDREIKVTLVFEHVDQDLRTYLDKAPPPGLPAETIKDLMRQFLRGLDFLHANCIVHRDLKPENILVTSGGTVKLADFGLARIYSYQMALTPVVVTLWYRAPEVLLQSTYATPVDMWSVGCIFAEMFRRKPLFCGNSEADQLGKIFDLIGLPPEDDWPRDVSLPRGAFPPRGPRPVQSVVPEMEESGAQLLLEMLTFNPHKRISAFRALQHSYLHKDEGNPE
# Sequence of protein kinases (human kinome) (Homo sapiens, UniProt P16591) (P16591 whole entry): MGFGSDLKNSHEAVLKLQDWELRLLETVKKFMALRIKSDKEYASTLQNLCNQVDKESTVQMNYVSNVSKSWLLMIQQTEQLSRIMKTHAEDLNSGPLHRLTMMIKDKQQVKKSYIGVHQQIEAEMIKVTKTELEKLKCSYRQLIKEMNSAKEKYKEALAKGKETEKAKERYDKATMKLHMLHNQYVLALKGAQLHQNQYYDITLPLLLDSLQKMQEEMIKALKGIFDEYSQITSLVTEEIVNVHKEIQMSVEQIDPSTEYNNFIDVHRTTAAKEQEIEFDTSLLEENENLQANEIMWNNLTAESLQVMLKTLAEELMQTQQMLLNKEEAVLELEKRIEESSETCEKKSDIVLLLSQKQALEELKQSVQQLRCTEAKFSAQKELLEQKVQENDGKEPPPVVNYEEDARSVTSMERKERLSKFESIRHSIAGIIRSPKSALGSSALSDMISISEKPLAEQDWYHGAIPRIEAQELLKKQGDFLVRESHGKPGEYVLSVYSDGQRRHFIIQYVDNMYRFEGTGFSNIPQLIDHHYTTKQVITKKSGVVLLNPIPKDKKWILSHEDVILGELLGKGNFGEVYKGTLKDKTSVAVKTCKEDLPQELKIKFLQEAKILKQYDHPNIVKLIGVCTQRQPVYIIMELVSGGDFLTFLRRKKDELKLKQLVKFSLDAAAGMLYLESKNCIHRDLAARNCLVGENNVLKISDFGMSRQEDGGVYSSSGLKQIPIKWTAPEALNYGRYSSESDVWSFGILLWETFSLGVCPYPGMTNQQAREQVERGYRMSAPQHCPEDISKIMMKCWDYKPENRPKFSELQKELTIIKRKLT
smiles,measurement,setting,value
"Cc1ccc(NC(=O)c2cccc(C(F)(F)F)c2)cc1N1Cc2cnc(Nc3ccc(N4CCN(Cc5cn(CCCCCOc6cccc7c6C(=O)N(C6CCC(=O)NC6=O)C7=O)nn5)CC4)nc3)nc2N(C)C1=O (stereo not shown) [DB0646, N-(3-(7-((6-(4-((1-(5-((2-(2,6-Dioxopiperidin-3-yl)-1,3-dioxoisoindolin-4-yl)oxy)pentyl)-1H-1,2,3-triazol-4-yl)methyl)piperazin-1-v)pyridin-3-yl)amino)-1-methyl-2-oxo-1,4-dihydropyrimido[4,5-d]pyrimidin-3(2H)-yl)-4-methylphenyl)-3-(trifluoromethyl)benzamide]",logFC of WEE1,"[1]; experiment wp160, 8 hr",−0.352
same,logFC WEE1 (P30291-1),"[1]; experiment wp160, 8 hr",−0.352
same,logFC of GAK (O14976),"[2]; Experiment wp045, down",−0.6424
same,logFC of GAK (O14976),"[2]; Experiment wp103, down",−0.4684
same,logFC of GAK (O14976),"[2]; Experiment wp105, down",−0.3367
same,logFC of GAK (O14976),"[2]; Experiment wp107, down",−0.5564
same,logFC of GAK (O14976),"[2]; Experiment wp114, down",−0.3391
same,logFC of GAK (O14976),"[2]; Experiment wp117, down",−0.5868
same,logFC of GAK (O14976),"[2]; Experiment wp152, down",−0.5117
same,logFC of GAK (O14976),"[2]; Experiment wp160, 4 hr, down",−0.4714
same,logFC GAK,"[2]; GAK (O14976), direction down, experiment wp045",−0.6424
same,logFC GAK,"[2]; GAK (O14976), direction down, experiment wp103",−0.4684
same,logFC GAK,"[2]; GAK (O14976), direction down, experiment wp105",−0.3367
same,logFC GAK,"[2]; GAK (O14976), direction down, experiment wp107",−0.5564
same,logFC GAK,"[2]; GAK (O14976), direction down, experiment wp114",−0.3391
same,logFC GAK,"[2]; GAK (O14976), direction down, experiment wp117",−0.5868
same,logFC GAK,"[2]; GAK (O14976), direction down, experiment wp152",−0.5117
same,logFC GAK,"[2]; GAK (O14976), direction down, experiment wp160, 4 hr",−0.4714
same,logFC GAK,"[2]; GAK (O14976), direction down, experiment wp160, 8 hr",−0.8149
same,logFC GAK,"[2]; GAK (O14976), experiment wp160, 8 hr, degrader vs DMSO, down",−0.8149
same,logFC GAK,"[2]; GAK (O14976), experiment wp172, down",−0.345
same,logFC GAK,"[2]; GAK, accession O14976, experiment wp172, direction of change down",−0.345
same,logFC CDK4 (P11802),[3]; experiment wp045,−0.9012
same,logFC CDK4 (P11802),[3]; experiment wp103,−0.5015
same,logFC CDK4 (P11802),[3]; experiment wp107,−0.5565
same,logFC CDK4 (P11802),[3]; experiment wp117,−0.6673
same,logFC CDK4 (P11802),[3]; experiment wp152,−0.736
same,logFC CDK4 (P11802),"[3]; experiment wp160, 4 hr",−0.7263
same,logFC CDK4 (P11802),"[3]; experiment wp160, 8 hr",−1.114
same,logFC of FER (P16591-1),[4]; Experiment wp045,−1.712
same,logFC of FER (P16591-1),[4]; Experiment wp103,−1.628
same,logFC of FER (P16591-1),[4]; Experiment wp105,−0.8737
same,logFC of FER (P16591-1),[4]; Experiment wp107,−1.722
same,logFC of FER (P16591-1),[4]; Experiment wp117,−1.753
same,logFC of FER (P16591-1),"[4]; Experiment wp160, 2 hr",−0.5384
same,logFC of FER (P16591-1),"[4]; Experiment wp160, 4 hr",−1.454
same,logFC of FER (P16591-1),"[4]; Experiment wp160, 8 hr",−1.737
same,logFC of FER,"[4]; FER P16591-1, experiment wp045",−1.712
same,logFC of FER,"[4]; FER P16591-1, experiment wp103",−1.628
same,logFC of FER,"[4]; FER P16591-1, experiment wp105",−0.8737
same,logFC of FER,"[4]; FER P16591-1, experiment wp107",−1.722
same,logFC of FER,"[4]; FER P16591-1, experiment wp117",−1.753
same,logFC of FER,"[4]; FER P16591-1, experiment wp160, 2 hr",−0.5384
same,logFC of FER,"[4]; FER P16591-1, experiment wp160, 4 hr",−1.454
same,logFC of FER,"[4]; FER P16591-1, experiment wp160, 8 hr",−1.737
same,logFC of FER,"[4]; FER P16591, experiment wp152",−1.698
same,logFC of FER (P16591),[4]; experiment wp152,−1.698
same,logFC BLK,[5]; experiment wp103,−1.19
same,logFC BLK,[5]; experiment wp107,−1.259
same,logFC BLK,[5]; experiment wp117,−1.275
same,logFC BLK,[5]; experiment wp152,−1.511
same,logFC BLK,"[5]; experiment wp160, 2 hr",−0.5315
same,logFC BLK,"[5]; experiment wp160, 4 hr",−1.092
same,logFC BLK,"[5]; experiment wp160, 8 hr",−1.434
same,logFC of BLK,"[5]; BLK P51451, experiment wp045",−1.314
same,logFC of BLK (P51451),[5]; Experiment wp045,−1.314
same,logFC of BLK (P51451),[5]; Experiment wp103,−1.19
same,logFC of BLK (P51451),[5]; Experiment wp107,−1.259
same,logFC of BLK (P51451),[5]; Experiment wp117,−1.275
same,logFC of BLK (P51451),[5]; Experiment wp152,−1.511
same,logFC of BLK (P51451),"[5]; Experiment wp160, 2 hr",−0.5315
same,logFC of BLK (P51451),"[5]; Experiment wp160, 4 hr",−1.092
same,logFC of BLK (P51451),"[5]; Experiment wp160, 8 hr",−1.434
CS(=O)(=O)Nc1cccc(-c2csc3cnc(Nc4ccc(N5CCN(CCOCCOCCOc6cccc7c6C(=O)N(C6CCC(=O)NC6=O)C7=O)CC5)cc4)nc23)c1 (stereo not shown) [RSS0628],logFC WEE1 (P30291-1),[1]; experiment wp045,−1.578
same,logFC CDK4 (P11802),[3]; experiment wp045,−1.422
same,logFC AAK1,"[6]; AAK1 (Q2M218-1), experiment wp045, down",−1.24
same,logFC AAK1,"[6]; AAK1, accession Q2M218-1, experiment wp045, direction of change down",−1.24
CC(C)S(=O)(=O)c1ccccc1Nc1nc(Nc2ccc(N3CCN(CCOCCOCCC(=O)NCCNc4cccc5c4CN(C4CCC(=O)NC4=O)C5=O)CC3)cc2)ncc1Cl (stereo not shown) [TL13.97],logFC of WEE1,[1]; experiment wp137,−1.585
same,logFC WEE1 (P30291-1),[1]; experiment wp137,−1.585
same,logFC CDK4 (P11802),[3]; experiment wp137,−0.9676
same,logFC of FER (P16591-1),[4]; Experiment wp137,−2.412
same,logFC of FER,"[4]; FER P16591-1, experiment wp137",−2.412
same,logFC BLK,[5]; experiment wp137,−2.219
same,logFC of BLK (P51451),[5]; Experiment wp137,−2.219
same,logFC AAK1,"[6]; AAK1 (Q2M218-1), experiment wp137, down",−2.479
same,logFC AAK1,"[6]; AAK1, accession Q2M218-1, experiment wp137, direction of change down",−2.479
